Measured values from US6632794B1, “Insulin-like growth factor agonist molecules” (Genentech, Inc., priority 1997, dated 2003).

Key:
Type in all cases: in vivo, rat
[1] = test system: Zucker Diabetic Fatty rats; test: IV bolus injection into diabetic rats, plasma glucose and insulin; details: ZDF rats, 100 μg IV; for fall in blood glucose: after 10 minutes
Protocol: Eighteen 7-week-old male Zucker Diabetic Fatty rats (250-300 g, Genetic Models Inc.) were anesthetized using KETAMINE™ (62.5 mg/kg)/ROMPUN XYLAZINE™ (12.5 mg/kg) anesthesia. The right jugular vein was cannulated using a silicone rubber catheter and the rats were allowed to recover.
Two days after surgery the rats (5-6/group) were divided into three treatment groups and given IV via the jugular catheter 200 μl of:
Three days later, using the same rats the study was repeated. The rats that were dosed with IGF-I in the initial study received the IGF mutant in the repeat study and vice versa. Control animals received PBS in both experiments.
Two blood samples were collected from each rat via the jugular cannula prior to IV dosing with the hormones and then blood samples were collected after 10, 30, 60, and 120 minutes. The plasma was immediately separated by centrifugation. The glucose concentration was measured by a coupled hexokinase procedure using a Chem 1A serum chemistry analyzer. Insulin concentration was measured using a rat insulin RIA kit (Linco Research, Inc., St. Charles, Mo.).
Statistical comparisons for each time point were made by an ANOVA with a Duncan's Multiple Range test. A p value of <0.05 was considered as being statistically significant. All data are represented as the mean±SEM, with five or six animals per treatment group.

[2] = test system: Zucker Diabetic Fatty (ZDF) rats; test: Long-term administration to diabetic rats incl. glucose tolerance test; details: for change in blood glucose two hours following the glucose challenge: glucose tolerance test day 14, 2 g/kg ip, 150 μg tid
Protocol: Obese male Zucker Diabetic Fatty (ZDF) rats (6-7 weeks of age, 225-250 g, Genetic Models Inc., Indianapolis, Ind. 46268) were group housed (3/cage) in a room controlled for temperature and lighting and fed the pelleted rat diet specified by the breeders (Purina 5008, 6% fat breeder chow) and tap water ad libitum. After three days acclimation, a blood sample was obtained from the tail vein for measurement of blood glucose and insulin, which was measured by rat-specific RIA (Linco Research Inc., St. Charles, Mo.). Animals were randomized into four treatment groups and into cages to give groups balance so as to have equivalent initial blood glucose levels, insulin levels, and body weights.
The experiment consisted of four groups of rats with seven rats per group.
1.0 The mutant (Leu^24,Ala^31)hIGF-I was prepared at two concentrations (1.5 mg/ml, and 0.5 mg/ml) so that with three injections per day two doses were given (a total of 450 μg/d or 150 μg/d). rhIGF-I was prepared at one concentration (1.5 mg/ml) so that with three injections per day one dose was given (450 μg/d). A fourth group of rats were given the excipient. The injections, each of 100 μl volume, were given at 7am, 1pm, and 7pm for 15 days without disrupting the controlled diurnal lighting of the vivarium room. Body weights were measured each day at 1 pm.
Blood samples were collected from non-fasted rats on the evening before the first day of dosing and on days 3, 7, and 10. Blood samples (400 μl) on days 3, 7, and 10 were taken by bleeding from a tail vein one hour after the mid-day injection. The blood was allowed to clot, and serum was separated and stored before analysis.
A glucose tolerance test was performed on day 14 of the study. Rats received their regular morning injection and then their food was withdrawn. After a 3-5-hour fast a blood sample (400 μl) was taken via the tail vein. Rats then received 2 g/kg dextrose(50%) by intraperitoneal (ip) injection. A blood sample (200 μl) was taken via tail vein at 10, 60, and 120 minutes after dextrose administration. Blood was allowed to clot and serum was separated and stored for measurement of glucose and insulin concentrations. After the glucose tolerance test was completed, animals were re-fed.
On day 15, one hour after the morning injection, rats were asphyxiated with carbon dioxide and bled by cardiac puncture. Blood was allowed to clot and serum was separated and frozen. Spleen, thymus, heart, liver, kidney, and perirenal fat were removed, blotted dry, and immediately weighed.
Statistical comparisons for each time point were made by an analysis of variance with a Duncan's Multiple Range test. A p value of <0.05 was considered as being statistically significant. All data are represented as the mean +SEM, with seven animals per treatment group.

male Wistar rats = test: IV injection into conscious normal rats, plasma glucose and insulin; details: 100 μg IV; for fall in blood glucose / plasma insulin response: after 10 mins
Protocol: Seven week old male Wistar rats (240-250 g, Charles Rivers Laboratories, Hollister, Calif.) were anesthetized with KETAMINE/XYLAZINE™ anesthesia and the right jugular vein was cannulated with a silicone rubber cannula that was developed for chronic blood sampling. Clark et al., J. Endocrinol., 111: 27-35 (1986). Following a two- to three-day recovery period, two basal blood samples were taken at −10 and −5 minutes, the test substances administered to the rats by IV injection, and then blood samples collected after 5, 10, 20, 30, 45, 60, and 120 minutes, and the plasma was immediately separated by centrifugation. The glucose and insulin concentrations were subsequently determined either by a coupled hexokinase procedure using a Chem 1A serum chemistry analyzer or, in the later case, a rat insulin RIA kit (Linco Research, Inc., St. Charles, Mo.).
Statistical comparisons were made by an analysis of variance (ANOVA) with a Duncan's Multiple Range test. A p value of <0.05 was considered as being statistically significant. All data are represented as the mean±SEM.
Two treatment groups, with five rats per group, were dosed IV with either (Leu^24,Ala^31)hIGF-I (100 μg) or PBS.
The rats in three treatment groups, with 4-5 rats per group, were dosed IV with either (Leu^24,Ala^31)hIGF-I (100 μg) or rhIGF-I (100 μg) and a control group was given PBS.

[3] = Day 10, 150 μg three times a day
[4] = day 13, 150 μg three times a day SC
[5] = glucose tolerance test day 14, 150 μg tid

Substance | plasma insulin response ([1]; Study One) | fall in blood glucose ([1]; Study One) | rise in blood glucose, percentage change from basal ([2]; Day 10, 50 μg three times a day) [%] | rise in blood glucose, percentage change from basal [2, 3] [%] | body weight gain ([2]; day 13, 50 μg three times a day SC) [g] | body weight gain [2, 4] [g] | insulin in response to the glucose challenge ([2]; glucose tolerance test day 14, 50 μg tid) [ng/mL] | insulin in response to the glucose challenge [2, 5] [ng/mL] | change in blood glucose two hours following the glucose challenge [2] [mg/dL] | plasma insulin levels, % of that of the control group (male Wistar rats; Study One) [%] | time plasma insulin remained depressed (male Wistar rats; Study One) [min] | fall in blood glucose (male Wistar rats; Study One) | time plasma insulin remained depressed (male Wistar rats; Study Two) [min] | fall in blood glucose (male Wistar rats; Study Two) | plasma insulin response (male Wistar rats; Study Two) | plasma insulin response ([1]; Study Two) | fall in blood glucose ([1]; Study Two)
(Leu^24,Ala^31)hIGF-I | suppressed blood insulin concentrations | smaller, but statistically significant | 84±20 | 74±22 | 100 ± 2.1 | 105.1 ± 2.3 | 10.2 ± 0.7 | 10.6 ± 0.6 | 59 ± 11 | 25 | 60 | brief but statistically significant | ≥ 120 | small but statistically significant fall in blood glucose | fall in insulin concentrations of a similar magnitude and degree of statistical significance | – | –
IGF-I: native-sequence recombinant human insulin-like growth factor-I (Genentech) | large, and maintained fall in plasma insulin | immediate, moderate, and statistically significant | – | 25±10 | – | 114.5 ± 1.6 | – | 12.2 ± 0.7 | 39 ± 12 | – | – | – | 120 | brief but statistically significant fall in blood glucose | decreased significantly | large, and maintained fall in plasma insulin | immediate, moderate, and statistically significant
